In US20100099677A1, “Compounds, Compositions and Methods Comprising Thiazole Derivatives” (Institute for OneWorld Health, priority 2008, published 2010):
pIC50: −log10 of the molar value.

Target: T1, CFTR (Homo sapiens, UniProt P13569)
T1 construct: results in the phosphorylation and opening of CFTR anion channels; host or cells: Human colonic T84 cells
Assay: T84 assay (FLIPR membrane potential dye, forskolin/IBMX-stimulated CFTR channel activity)
Assay type: cell-based
Details: human colonic T84 cells, average of at least 2 runs unless otherwise indicated
Procedure: (§1) For example, Human colonic T84 cells can be acquired from the European Collection of Cell Cultures (ECACC) and grown in standard culture conditions as described by the supplier. On the day before assay 25,000 T84 cells per well are plated into standard black walled, clear bottom 384-well assay plates in standard growth medium consisting of DMEM:F12 with 10% FBS and incubated overnight. On the day of the assay the plates are washed using a standard assay buffer (HBSS with 10 mM Hepes) and incubated for 15 minutes in serum free cell culture medium before the addition of a commercially available membrane potential sensitive fluorescent dye (FLIPR Red membrane potential dye, Molecular Devices Corporation). T84 cells are incubated with the FLIPR Red membrane potential dye for 45 minutes in the presence and absence of test compound before being transferred to a commercially available fluorescence imaging plate reader (FLIPR384, Molecular Devices Corporation). Fluorescence levels are monitored continuously every second for 150 seconds; after an initial 10 second baseline, CFTR channel activity is stimulated through the addition of 10 μM forskolin in the presence of 100 μM of the phosphodiesterase inhibitor iso-butyl-methylxanthine (IBMX). Addition of the forskolin leads to the activation of intracellular adenylyl cylase 1, elevating cAMP levels and results in the phosphorylation and opening of CFTR anion channels. CFTR channel opening causes chloride ion efflux and subsequent depolarization of the cells, which is measured by an increase in fluorescence. CFTR inhibitor compounds prevent cell depolarization and the associated increase in fluorescence.
as §1, with “Human colonic” for “For example, Human colonic”, “T84 cells are acquired from” for “T84 cells can be acquired from”, “(ECACC) and are grown in” for “(ECACC) and grown in”

T1 sequence (P13569 whole entry): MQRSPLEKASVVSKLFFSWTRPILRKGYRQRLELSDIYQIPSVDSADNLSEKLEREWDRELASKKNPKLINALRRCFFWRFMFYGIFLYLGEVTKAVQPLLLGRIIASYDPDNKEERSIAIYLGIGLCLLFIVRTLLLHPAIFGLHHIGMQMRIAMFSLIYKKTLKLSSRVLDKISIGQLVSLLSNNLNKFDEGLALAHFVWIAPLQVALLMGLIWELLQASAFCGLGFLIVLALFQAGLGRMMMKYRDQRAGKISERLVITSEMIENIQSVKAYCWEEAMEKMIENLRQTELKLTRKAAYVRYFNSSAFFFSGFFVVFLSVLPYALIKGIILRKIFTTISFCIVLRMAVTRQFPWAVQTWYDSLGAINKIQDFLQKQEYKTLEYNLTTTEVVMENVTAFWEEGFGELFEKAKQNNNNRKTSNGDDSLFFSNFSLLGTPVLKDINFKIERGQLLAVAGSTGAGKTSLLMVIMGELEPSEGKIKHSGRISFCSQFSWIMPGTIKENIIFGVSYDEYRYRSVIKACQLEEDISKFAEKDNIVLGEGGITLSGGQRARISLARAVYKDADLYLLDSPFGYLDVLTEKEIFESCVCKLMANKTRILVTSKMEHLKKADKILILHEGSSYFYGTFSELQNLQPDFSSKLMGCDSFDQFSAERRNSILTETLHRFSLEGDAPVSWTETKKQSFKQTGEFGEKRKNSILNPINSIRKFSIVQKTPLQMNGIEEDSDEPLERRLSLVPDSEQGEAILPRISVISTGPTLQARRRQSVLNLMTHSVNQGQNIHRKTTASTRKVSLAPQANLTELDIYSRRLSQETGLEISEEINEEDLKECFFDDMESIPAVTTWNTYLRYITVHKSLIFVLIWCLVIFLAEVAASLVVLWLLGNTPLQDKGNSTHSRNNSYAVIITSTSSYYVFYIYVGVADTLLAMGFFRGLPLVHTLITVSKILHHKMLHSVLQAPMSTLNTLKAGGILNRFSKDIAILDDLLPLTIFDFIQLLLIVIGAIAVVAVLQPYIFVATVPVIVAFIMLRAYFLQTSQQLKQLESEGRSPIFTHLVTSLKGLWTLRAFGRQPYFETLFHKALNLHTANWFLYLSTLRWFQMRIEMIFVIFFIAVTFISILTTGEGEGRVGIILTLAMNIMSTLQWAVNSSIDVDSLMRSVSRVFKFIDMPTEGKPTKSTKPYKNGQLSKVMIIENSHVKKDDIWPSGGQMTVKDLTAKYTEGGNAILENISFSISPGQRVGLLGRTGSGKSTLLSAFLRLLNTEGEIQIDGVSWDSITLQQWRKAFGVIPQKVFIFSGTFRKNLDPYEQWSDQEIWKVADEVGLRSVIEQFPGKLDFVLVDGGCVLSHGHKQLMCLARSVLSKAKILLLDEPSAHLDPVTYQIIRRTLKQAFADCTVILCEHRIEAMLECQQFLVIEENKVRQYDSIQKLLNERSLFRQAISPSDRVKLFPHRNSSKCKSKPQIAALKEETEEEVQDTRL

Row | SMILES | pIC50
1 | O=C(c1nc(-c2cc(Br)c(O)c(Br)c2)cs1)N1CCN(c2cccc(C(F)(F)F)c2)CC1 [Compound 73, (4-(3,5-Dibromo-4-hydroxyphenyl)thiazol-2-yl)(4-(3-(trifluoromethyl)phenyl)piperazin-1-yl)methanone] | 4.91
2 | O=C(c1nc(-c2cc(Br)c(O)c(Br)c2O)cs1)N1CCN(c2cccc(C(F)(F)F)c2)CC1 [Compound 82, (4-(3,5-dibromo-2,4-dihydroxyphenyl)thiazol-2-yl)(4-(3-(trifluoromethyl)phenyl)piperazin-1-yl)methanone] | 4.90
3 | O=C(NC(c1ccccc1)c1ccccc1)c1nc(-c2cc(Br)c(O)c(Br)c2)cs1 [Compound 71, N-Benzhydryl-4-(3,5-dibromo-4-hydroxyphenyl)thiazole-2-carboxamide] | 5.03
4 | O=C(NCc1ccc(Oc2ccccc2)cc1)c1nc(-c2cc(Br)c(O)c(Br)c2O)cs1 [Compound 79, 4-(3,5-dibromo-2,4-dihydroxyphenyl)-N-(4-phenoxybenzyl)thiazole-2-carboxamide] | 4.94
5 | CN(Cc1cccc(C(F)(F)F)c1)C(=O)c1nc(-c2cc(Cl)c(O)c(Cl)c2)cs1 [Compound 67, 4-(3,5-Dichloro-4-hydroxyphenyl)-N-methyl-N-(3-(trifluoromethyl)benzyl)thiazole-2-carboxamide] | 5.39
6 | O=C(NC(c1ccccc1)c1ccccc1)c1nc(-c2cc(Cl)c(O)c(Cl)c2)cs1 [Compound 69, N-Benzhydryl-4-(3,5-dichloro-4-hydroxyphenyl)thiazole-2-carboxamide] | 5.19
7 | O=C(NCc1ccc(Oc2ccccc2)cc1)c1nc(-c2cc(Cl)c(O)c(Cl)c2)cs1 [Compound 76, 4-(3,5-Dichloro-4-hydroxyphenyl)-N-(4-phenoxybenzyl)thiazole-2-carboxamide] | 4.53
8 | O=C(NCc1cccc(OC(F)(F)F)c1)c1csc(-c2cc(Cl)c(O)c(Cl)c2)n1 [Compound 80, 2-(3,5-Dichloro-4-hydroxyphenyl)-N-(3-(trifluoromethoxy)benzyl)thiazole-4-carboxamide] | 4.82
9 | O=C(c1nc(-c2cc(Cl)c(O)c(Cl)c2)cs1)N1CCN(c2cccc(C(F)(F)F)c2)CC1 [Compound 74, (4-(3,5-Dichloro-4-hydroxyphenyl)thiazol-2-yl)(4-(3-(trifluoromethyl)phenyl)piperazin-1-yl)methanone] | 4.70
10 | O=C(NCc1ccc(Oc2ccccc2)cc1)c1nc(-c2cc(Br)c(O)c(Br)c2)cs1 [Compound 75, 4-(3,5-Dibromo-4-hydroxyphenyl)-N-(4-phenoxybenzyl)thiazole-2-carboxamide] | 4.62
11 | O=C(NCc1cccc(OC(F)(F)F)c1)c1nc(-c2cc(Br)c(O)c(Br)c2O)cs1 [Compound 78, 4-(3,5-dibromo-2,4-dihydroxyphenyl)-N-(3-(trifluoromethoxy)benzyl)thiazole-2-carboxamide] | 5.59
12 | O=C(NCC(c1ccccc1)c1ccccc1)c1nc(-c2cc(Br)c(O)c(Br)c2O)cs1 [Compound 81, 4-(3,5-dibromo-2,4-dihydroxyphenyl)-N-(2,2-diphenylethyl)thiazole-2-carboxamide] | 5.37

Results, then the compound that gave them:

Row | pIC50 | SMILES
13 | 4.95 | O=C(c1nc(-c2cc(Br)c(O)c(Br)c2)cs1)N1CCC(Cc2ccccc2)CC1 [Compound 72, (4-Benzylpiperidin-1-yl)[4-(3,5-dibromo-4-hydroxyphenyl)thiazol-2-yl]methanone]
14 | 4.81 | Cc1cccc(COc2c(-c3csc(C(=O)N4CCC(Cc5ccccc5)CC4)n3)cc(Br)c(O)c2Br)n1 [Compound 88, (4-benzylpiperidin-1-yl)(4-(3,5-dibromo-4-hydroxy-2-((6-methylpyridin-2-yl)methoxy)phenyl)thiazol-2-yl)methanone]
15 | 5.38 | CCOC(=O)CCCOc1c(-c2csc(C(=O)N3CCC(Cc4ccccc4)CC3)n2)cc(Br)c(O)c1Br [Compound 83, Ethyl 4-(6-(2-(4-benzylpiperidine-1-carbonyl)thiazol-4-yl)-2,4-dibromo-3-hydroxyphenoxy)butanoate]
16 | 5.52 | O=C(c1nc(-c2cc(Br)c(O)c(Br)c2OCCN2CCOCC2)cs1)N1CCC(Cc2ccccc2)CC1 [Compound 86, (4-benzylpiperidin-1-yl)(4-(3,5-dibromo-4-hydroxy-2-(2-morpholinoethoxy)phenyl)thiazol-2-yl)methanone]
17 | 5.32 | O=C(c1nc(-c2cc(Br)c(O)c(Br)c2O)cs1)N1CCC(Cc2ccccc2)CC1 [Compound 68, (4-Benzylpiperidin-1-yl)(4-(3,5-dibromo-2,4-dihydroxyphenyl)thiazol-2-yl)methanone]
18 | 5.05 | O=C(c1nc(-c2cc(Cl)c(O)c(Cl)c2)cs1)N1CCC(Cc2ccccc2)CC1 [Compound 70, (4-benzylpiperidin-1-yl)(4-(3,5-dichloro-4-hydroxyphenyl)thiazol-2-yl)methanone]
19 | 5.06 | O=C(O)CCCOc1c(-c2csc(C(=O)N3CCC(Cc4ccccc4)CC3)n2)cc(Br)c(O)c1Br [Compound 89, 4-(6-(2-(4-Benzylpiperidine-1-carbonyl)thiazol-4-yl)-2,4-dibromo-3-hydroxyphenoxy)butanoic acid]
20 | 5.76 | COCCOCCOc1c(-c2csc(C(=O)N3CCC(Cc4ccccc4)CC3)n2)cc(Br)c(O)c1Br [Compound 87, (4-benzylpiperidin-1-yl)(4-(3,5-dibromo-4-hydroxy-2-(2-(2-methoxyethoxy)ethoxy)phenyl)thiazol-2-yl)methanone]
